Results: patent publication US6087401A, “Cyclopentenones, process for preparing the same, and the use thereof” (Takara Shuzo Co., Ltd., priority 1996, dated 2000)

Tests used:
Conditions in all cases: method of the corresponding examples
[1] = test system: HL-60 cells; experiment: apoptosis-inducing activity to HL-60 cells; format: cell-based, human
Description: (2) The cyclopentenone prepared in Example 2-(1) was used for preparing aqueous solutions of the cyclopentenone in the concentrations of 2.86 mM, 955 μM, 318 μM, 106 μM, 35 μM, 12 μM and […]. Then said heat-treated substance was adjusted to pH 7.0 with NaOH and the apoptosis-inducing activity to HL-60 cells was measured as follows.
To 1.35 ml of this suspension was added 0.15 ml of the above-mentioned cyclopentenone solution and the mixture was incubated at […] for 20 hours in the presence of 5% of carbon dioxide gas.

[2] = test system: human promyelocytic leukemia cells HL-60; experiment: MTT cell growth inhibition, optically active cyclopentenones; format: cell-based
Description: An ethanolic solution (1 mg/ml) of each of the (-)- and (+) -cyclopentenoneobtained in Example 16 was diluted with a 75% aqueous ethanol solution to an extent of 2, 4, 8, 16, 32, 64, 128, 256, 512, 1024 and 2048-fold and each 5 μl of them was charged in each of the wells of a 96-well microtiter plate followed by drying with air. An RPMI 1640 medium (100 μl) containing 10% fetal bovine serum containing 5000 human promyelocytic leukemia cells HL-60 (ATCC CCL-240) was added to each well and incubated at 37° C. for 48 hours in the presence of 5% of carbon dioxide gas. After observing the morphology of the cells under an optical microscope, 10 μl of phosphate buffered saline containing 5 mg/ml of 3-(4,5-dimethylthiazol-2-yl)-2,5-diphenyltetrazolium bromide (MTT; manufactured by Sigma) thereto, an incubation was conducted for additional four hours and the growth state of the cells was observed under a microscope. Further, 100 μl of 2-propanol containing 0.04N HCl was added thereto followed by well stirring and an absorbance at 590 nm was measured and defined as the degree of cell growth.

[3] = test system: HL-60 cells; experiment: cancer cell differentiation (Wright-Giemsa stain); format: cell-based, human
Description: (2) To HL-60 cells was added 10^-4 μg/ml of the cyclopentenone and an incubation by the same manner as in Example 15-(1) was conducted for three days. […] The result was that the differentiated cells were around 10% in the control where no cyclopentenone was added while, in the fractions to which the cyclopentenone was added, 50% or more cells were differentiated to monocyte- or to macrophage-like cells.
The result was that the differentiated cells were around 10% in the control where no cyclopentenone was added while, in the fraction to which 0.005 μg/ml of the cyclopentenone was added, 25% or more cells were differentiated to mature bone marrow cells.

[4] = antibacterial activity of optically active cyclopentenones; format: cell-based

Structure (SMILES) | apoptosis inducing activity [1] | cell growth inhibition [2] | cancer cell differentiation inducing activity [3] | antibacterial activity [4]
O=C1C=C[C@@H](O)[C@@H]1O (single isomer, unassigned) [(+)-trans-cyclopentenone, (+)-trans-4,5-dihydroxy-2-cyclopenten-1-one] | apoptosis inducing activity | cell growth inhibiting activity | cancer cell differentiation inducing activity | antibacterial activity
O=C1C=C[C@@H](O)[C@@H]1O (single isomer, unassigned) [(-)-trans-cyclopentenone, (-)-trans-4,5-dihydroxy-2-cyclopenten-1-one] | apoptosis inducing activity | cell growth inhibiting activity | cancer cell differentiation inducing activity | antibacterial activity
O=C1C=CC(O)C1O (single isomer, unassigned; (+)) [(+)-cis-cyclopentenone] | apoptosis inducing activity | cell growth inhibiting activity | cancer cell differentiation inducing activity | antibacterial activity
O=C1C=CC(O)C1O (single isomer, unassigned; (-)) [(-)-cis-cyclopentenone] | apoptosis inducing activity | cell growth inhibiting activity | cancer cell differentiation inducing activity | antibacterial activity
